{"source": "patent US8217164B2", "about": "“Use of a lactose-derived C-glycoside compound as an agent for activating and regulating cutaneous immunity” (L'Oreal, priority 2006, dated 2012)", "system": "human peripheral blood cells (lymphocyte proliferation)", "assay": "Immunostimulant activity: lymphocyte proliferation by BrdU labelling", "format": "cell-based", "conditions": "10 to 0.05 mM, 3 days of culture", "procedure": "The immunostimulant activity is tested in the following way: human peripheral blood cells are cultured in the presence of an RPMI-type culture medium supplemented with L-glutamine (2 mM), penicillin/streptomycin (50 μg/50 IU/ml) and foetal calf serum (10%). The C-glycoside derivatives are added at various concentrations (10 to 0.05 mM), as is phytohaemagglutinin (PHA at 5*G/ml), a positive control for lymphocyte proliferation.", "data": [{"smiles": "CC(=O)C[C@@H]1O[C@H](CO)[C@@H](OC2O[C@H](CO)[C@H](O)[C@H](O)[C@H]2O)[C@H](O)[C@H]1O", "note": "(stereo partly shown) [Compound 2]", "values": [{"measurement": "human lymphocyte proliferation (immunostimulant activity)", "value": "tendency to stimulate human lymphocyte proliferation at all the concentrations tested"}]}]}
